“Also recorded” adds a separate entry of the source. Where two headings read alike, the source gives them in different places.
What was measured:
[1] = test system: α4 integrin on lymphocytes and monocytes; experiment: Chronic EAE in guinea pigs: FACS analysis of α4 integrin on circulating lymphocytes and monocytes; assay type: in vivo, guinea pig
Procedure: FACS Analysis. On day 80 post-immunization, heparinized blood samples were collected from non-EAE animals, saline-treated animals, N-[N-(3-pyridinesulfonyl)-L-3,3-dimethyl-4-thiaprolyl]-O-[1-methylpiperazin-4-ylcarbonyl]-L-tyrosine isopropyl ester-treated animals and animals 10 days following withdrawal of N-[N-(3-pyridinesulfonyl)-L-3,3-dimethyl-4-thiaprolyl]-O-[1-methylpiperazin-4-ylcarbonyl]-L-tyrosine isopropyl ester. All samples were maintained at 4° C. for all procedures. 150 μl samples were exposed to primary antibody for 30 minutes, washed twice, and then incubated with PE-conjugated goat anti-mouse IgG Fc in the presence of 5% guinea pig serum (Beckman Coulter #PN EM055 1). Red blood cells were lysed with Becton-Dickinson lysing solution and the samples were examined on a FACScan flow cytometer (Becton Dickinson, Mountain View, Calif.) gating on different cell populations by light scatter.

[2] = test system: experimental allergic encephalomyelitis in female Hartley guinea pigs; experiment: Chronic EAE in guinea pigs: histological analysis and pathological score of brain and spinal cord; assay type: in vivo, guinea pig; details: for spinal cord histology after 20 days of treatment (day 60 post immunization) / spinal cord histology after 40 days of treatment (day 80 post immunization): SCR and H-E sections, vs saline
Procedure: Animal Sacrifice and Histological Analysis. Untreated, chronic EAE animals (n=5) were sacrificed on day 40, as well as non-EAE controls (n=5). Following each 10-day treatment interval, 5 animals from each group were sacrificed (0.25 mL sodium pentobarbital), blood samples were collected for FACS analysis (see below), and the brain and spinal cord dissected and sectioned. Three spinal sections were used, corresponding to lumbar, thoracic and cervical regions of the cord. The brain was cut into five transverse sections. The first three proximal sections were combined in one block, and the last two distal sections in another. Tissues were fixed in 10% formalin and embedded in paraffin. […] sections were stained with hematoxylin-eosin (H-E) or solochrome-R-cyanlin (SCR) and evaluated by a blinded observer in each of four categories: (1) meningeal inflammation, (2) perivascular infiltration, (3) encephalitis or (4) myelitis and demyelination (Table 6). The combined pathological score represents the total score (out of a potential 20) from all 5 CNS sections in each animal.
Statistical Analysis. Statistical analysis was performed using SigmaStat v2 software (SPSS Inc.). Clinical scores were assessed using the Mann Whitney rank sum test, while pathological scores were assessed with a two-Way ANOVA. Quantitative abnormalities were compared using Kruskal-Wallis ANOVA on ranks. In each case, p<0.05 was considered significant. A linear regression was performed on the mean cell counts in the spinal cord.

IL-2, IL-10, MCP-1 = experiment: Chronic EAE in guinea pigs: quantitative reverse transcription-PCR of spinal cord; assay type: in vivo, guinea pig; details: for cytokine RNA (IL-2, IL-10, MCP-1) in spinal cord after withdrawal: 10 days after removal
Procedure: Quantitative Reverse Transcription-PCR: IL-2, IL-10, MCP-1. RNA was isolated from 30 mg of frozen guinea pig spinal cord using the S.N.A.P.™ (simple nucleic acid preparation) total RNA Isolation Kit (Invitrogen) according to manufacturer's instructions, modified to include a second DNAse treatment step followed by an additional purification over the S.N.A.P. column.
Primer/probe sequences and concentrations for IL-2, IL-10, and MCP-1 are given in Table 7, as well as the standard RNA used for each gene. RT-PCR was carried out in triplicate using the ABI PRISM® 7700 Sequence Detection System. 50 μl reactions contained 10 to 800 ng of total RNA and primers and probes at the concentrations indicated above in reaction buffer consisting of 6.67% glycerol (Amresco); 5.5 mM MgCl; 300 μM dATP, dCTP, dGTP, and dUTP; 100 nM probe; 1.25 unit of AmpliTaq Gold® DNA Polymerase (Applied Biosystems); 1× TaqMan® Buffer A (TaqMan® PCR Core reagents kit, Applied Biosystems), 20 units of RNase Inhibitor (Roche); 1.25 unit of murine leukemia virus (MULV) Reverse Transcriptase (Applied Biosystems). Reverse-transcription of RNA was carried out at 48° C. for 30 min., followed by a 10 min. denaturing step at 95° C. PCR was carried out by 40 thermo-cycles consisting of 95° C. for 15 seconds followed by 60° C. for 1 minute. Each plate included a standard curve using the standard RNA listed in Table 7 and two additional control samples: 1) a positive control RNA sample used on all plates, 2) a non-template control (NTC).
The correlation coefficients of the standard curves were greater than 0.990 for all data shown. The coefficients of variation for sample triplicates were less than 0.2. Since the RNA used for the standard curve is a heterogeneous mix of RNA containing a constant but unknown amount of the target message, the numbers calculated are relative.

α4β1 = target: T1, α4β1 (Homo sapiens, UniProt P05556+P13612); experiment: In vitro saturation assay for determining binding of candidate compounds to α4β1 (Jurkat cells in plasma, 15/7 antibody, FACS); assay type: cell-based; details: guinea pig, 30 mg/kg twice a day subcutaneously
T1 construct: endogenous in cells; host or cells: Jurkat cells
T1 sequence (P13612 34-1032): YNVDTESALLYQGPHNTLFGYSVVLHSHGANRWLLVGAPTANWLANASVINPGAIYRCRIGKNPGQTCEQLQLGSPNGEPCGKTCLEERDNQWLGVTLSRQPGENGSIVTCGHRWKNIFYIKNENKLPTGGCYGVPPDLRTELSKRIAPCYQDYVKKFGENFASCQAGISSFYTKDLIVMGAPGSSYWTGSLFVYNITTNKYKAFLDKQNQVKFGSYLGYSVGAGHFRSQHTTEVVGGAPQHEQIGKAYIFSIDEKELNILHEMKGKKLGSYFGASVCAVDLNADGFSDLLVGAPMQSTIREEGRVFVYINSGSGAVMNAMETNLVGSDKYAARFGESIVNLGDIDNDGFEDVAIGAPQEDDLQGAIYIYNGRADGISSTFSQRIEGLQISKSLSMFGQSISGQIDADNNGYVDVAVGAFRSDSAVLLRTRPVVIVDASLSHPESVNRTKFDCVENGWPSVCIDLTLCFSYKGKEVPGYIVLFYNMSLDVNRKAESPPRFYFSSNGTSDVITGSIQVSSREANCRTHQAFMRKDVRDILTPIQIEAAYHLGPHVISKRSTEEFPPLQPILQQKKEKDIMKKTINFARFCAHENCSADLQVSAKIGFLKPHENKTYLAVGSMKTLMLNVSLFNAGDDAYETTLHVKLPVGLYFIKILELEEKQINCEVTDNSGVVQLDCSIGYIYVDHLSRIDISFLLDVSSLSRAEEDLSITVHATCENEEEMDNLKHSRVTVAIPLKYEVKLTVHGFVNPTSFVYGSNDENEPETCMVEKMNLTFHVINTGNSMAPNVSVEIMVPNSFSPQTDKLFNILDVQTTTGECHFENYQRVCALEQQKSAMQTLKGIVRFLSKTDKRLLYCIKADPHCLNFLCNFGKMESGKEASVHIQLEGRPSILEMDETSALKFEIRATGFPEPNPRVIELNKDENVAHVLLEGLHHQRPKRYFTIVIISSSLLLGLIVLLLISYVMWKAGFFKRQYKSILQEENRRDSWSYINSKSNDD
T1 sequence (P05556 21-798): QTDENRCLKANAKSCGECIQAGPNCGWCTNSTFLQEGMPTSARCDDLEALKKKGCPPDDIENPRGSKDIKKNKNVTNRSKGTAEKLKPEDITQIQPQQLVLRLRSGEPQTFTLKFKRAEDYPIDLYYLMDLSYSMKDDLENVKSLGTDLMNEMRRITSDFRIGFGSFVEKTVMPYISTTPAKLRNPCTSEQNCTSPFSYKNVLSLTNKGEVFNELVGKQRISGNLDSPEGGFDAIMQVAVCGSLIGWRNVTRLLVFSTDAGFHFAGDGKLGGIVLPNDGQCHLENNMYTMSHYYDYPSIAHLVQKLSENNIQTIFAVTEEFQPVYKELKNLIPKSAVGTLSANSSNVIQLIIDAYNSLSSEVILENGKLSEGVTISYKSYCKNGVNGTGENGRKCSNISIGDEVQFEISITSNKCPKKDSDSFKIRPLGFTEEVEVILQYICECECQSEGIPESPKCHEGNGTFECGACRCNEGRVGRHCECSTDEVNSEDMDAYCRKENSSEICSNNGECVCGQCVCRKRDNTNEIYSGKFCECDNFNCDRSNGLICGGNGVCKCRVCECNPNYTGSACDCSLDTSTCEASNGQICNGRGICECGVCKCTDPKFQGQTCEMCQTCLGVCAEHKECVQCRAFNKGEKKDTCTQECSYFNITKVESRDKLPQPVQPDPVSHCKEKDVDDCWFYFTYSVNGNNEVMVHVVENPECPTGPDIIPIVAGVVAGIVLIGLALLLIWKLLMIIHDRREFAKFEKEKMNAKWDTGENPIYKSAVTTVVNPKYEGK
Procedure: The following describes an in vitro assay to determine the plasma levels needed for a compound to be active in the Experimental Autoimmune Encephalomyelitis (“EAE”) model, described in the next example, or in other in vivo models.
Log-growth Jurkat cells are washed and resuspended in normal animal plasma containing 20 μg/ml of the 15/7 antibody (described in the above example).
The Jurkat cells are diluted two-fold into either normal plasma samples containing known candidate compound amounts in various concentrations ranging from 66 μg/mL to 0.01 μg/mL, using a standard 12 point serial dilution for a standard curve, or into plasma samples obtained from the peripheral blood of candidate compound-treated animals.
Cells are then incubated for 30 minutes at room temperature, washed twice with phosphate-buffered saline (“PBS”) containing 2% fetal bovine serum and 1 mM each of calcium chloride and magnesium chloride (assay medium) to remove unbound 15/7 antibody. […]
Cells are washed twice with assay medium and resuspended in the same. They are then analyzed with a standard fluorescence activated cell sorter analysis as described in Yednock et al., J. Bio. […]
The data is then graphed as fluorescence versus dose, e.g., in a normal dose-response fashion. […]

[3] = test system: experimental allergic encephalomyelitis in female Hartley guinea pigs; details: for mean clinical score day 70-80 after withdrawal (30 days treatment, 10 days off) vs continued treatment: p<0.05 Mann Whitney rank sum test; for escape from treatment: up to 40 days of treatment, compared with antibodies to α4 integrin
[4] = listed as N-[N-(3-pyridinesulfonyl)-L-3,3-dimethyl-4-thiaprolyl]-O-[1-methylpiperzain-4-yl

SMILES: CC(C)OC(=O)[C@H](Cc1ccc(OC(=O)N2CCN(C)CC2)cc1)NC(=O)[C@H]1N(S(=O)(=O)c2cccnc2)CSC1(C)C [N-[N-(3-pyridinesulfonyl)-L-3,3-dimethyl-4-thiaprolyl]-O-[1-methylpiperazin-4-ylcarbonyl]-L-tyrosine isopropyl ester]
- percentage of α4 integrin bright lymphocytes in the circulation after removal ([1]; day 80, 10 days after withdrawal): returned to saline-treated levels
- increase of α4 integrin expression on circulating monocytes in EAE ([1]; day 80 post immunization): not affected
- α4 integrin bright lymphocytes in the circulation vs saline-treated animals ([1]; day 80 post immunization): large increase
- mean pathological score in each of four categories (meningeal inflammation, perivascular infiltration, encephalitis/myelitis, demyelination) vs saline ([2]; 10-40 days treatment, p<0.001 two-way ANOVA): significant decrease
- spinal cord histology after 20 days of treatment (day 60 post immunization) [2]: much smaller areas of demyelination
- spinal cord histology after 40 days of treatment (day 80 post immunization) [2]: almost no meningeal and perivascular infiltration
- spinal cord histology after 20 days of treatment (day 60 post immunization) [2, 4]: much smaller area of demyelination
- spinal cord histology after 40 days of treatment (day 80 post immunization) [2, 4]: almost no meningeal and perivascular inflammation
- mean combined pathological score after withdrawal for 10 days vs continued treatment ([2]; p<0.05 Kruskal Wallis ANOVA on ranks with SNK test): significantly higher
- cytokine RNA (IL-2, IL-10, MCP-1) in spinal cord after withdrawal (IL-2, IL-10, MCP-1): returned to levels comparable to saline-treated animals
- cytokine RNA (IL-2, IL-10, MCP-1) in spinal cord after withdrawal (IL-2, IL-10, MCP-1; [4]): rose to levels comparable to those in saline-treated animals
- IL-2 RNA in lumbar spinal cord (IL-2, IL-10, MCP-1; during treatment, vs saline): almost no detectable
- expression of inflammatory cytokine RNA (IL-2, IL-10, MCP-1) in spinal cord (IL-2, IL-10, MCP-1; during treatment, vs saline): significant reduction; also recorded: marked decrease
- receptor saturation levels maintained at all times (α4β1): > 10 nm
- mean clinical score vs saline-treated animals over the treatment period ([3]; 30 mg/kg 2×/day s.c. from day 40 post immunization for 10-40 days, p<0.001 Mann Whitney rank sum test): significantly lower
- start of clinical reversal following the initial treatment ([3]; 30 mg/kg twice a day s.c. from day 40 post immunization): 2 to 3 days
- adverse side effects during prolonged administration ([3]; guinea pig, 30 mg/kg 2×/day s.c. for up to 40 days, listed as N-[N-(3-pyridinesulfonyl)-L-3,3-dimethyl-4-thiaprolyl]-O-[1-methylpiperzain-4-yl, 30 mg/kg): no adverse side effects
- mean clinical score day 70-80 after withdrawal (30 days treatment, 10 days off) vs continued treatment [3]: significantly greater
- mean clinical score day 70-80 after withdrawal (30 days treatment, 10 days off) vs continued treatment [3, 4]: significantly higher
- hind limb paresis in animals with an established clinical score of 2 ([3]; reversion to a clinical score of 1 during treatment): reversed the paresis
- escape from treatment [3]: None of the animals, however, escaped from treatment
- escape from treatment [3, 4]: no escape from treatment

Reference: patent publication US7576101B2, “Composition for and treatment of demyelinating diseases and paralysis by administration of remyelinating agents” (Elan Pharmaceuticals, Inc., priority 2003, dated 2009)
